From US10765114B2, “4-amino-6-(pyridyl and 2-substitutedphenyl)-picolinates and 6-amino-2-(pyridyl and 2-substitutedphenyl)-pyrimidine-4-carboxylates and their use as herbicides” (Dow AgroSciences LLC, priority 2013, dated 2020)
Read-outs that look alike come from different tables or passages of the source.

How the values were obtained:
[1] = tested on: Key Broadleaf Weed and Crop Species; assay: Post-Emergent Test II (Table 5); format: in vivo; conditions: post-emergence, 336 h; for pest or weed control at 70 g/ha: application rate 70 (kg ai/ha; footnote: g ai/ha); for pest or weed control at 140 g/ha: application rate 140 (kg ai/ha; footnote: g ai/ha)
Outline: (§1)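 Visual injury ratings (0 = no injury, 100 = complete kill) taken 14 days after treatment, relative to untreated controls. Compounds, in an acetone/DMSO aqueous carrier with crop oil and surfactant, were applied by track sprayer at 187 L/ha, in a twofold dilution series from the top rate, to plants at the first to second true-leaf stage.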

[2] = tested on: Key Grass and Sedge Weeds as well as Grass Crops; assay: Post-Emergent Test II (Table 6); format: in vivo; conditions: post-emergence, 336 h, 14 days after application; for pest or weed control at 70 g/ha: 70 g ai/ha; for pest or weed control at 140 g/ha: 140 g ai/ha
Outline: as §1

[3] = Abutilon theophrasti, ABUTH: velvetleaf (Abutilon theophrasti), read-out: Visual Growth Reduction (%) 14 Days After Application ABUTH
[4] = Amaranthus retroflexus, AMARE: redroot pigweed (Amaranthus retroflexus), read-out: Visual Growth Reduction (%) 14 Days After Application AMARE
[5] = Brassica napus, BRSSS: oilseed rape, canola (Brassica napus), read-out: Visual Growth Reduction (%) 14 Days After Application BRSSS
[6] = Chenopodium album, CHEAL: lambsquarters (Chenopodium album), read-out: Visual Growth Reduction (%) 14 Days After Application CHEAL
[7] = Euphorbia heterophylla, EPHHL: wild poinsettia (Euphorbia heterophylla), read-out: Visual Growth Reduction (%) 14 Days After Application EPHHL
[8] = Helianthus annuus, HELAN: sunflower (Helianthus annuus), read-out: Visual Growth Reduction (%) 14 Days After Application HELAN
[9] = Viola tricolor, VIOTR: wild pansy (Viola tricolor), read-out: Visual Growth Reduction (%) 14 Days After Application VIOTR
[10] = CYPSS, read-out: Visual Growth Reduction (%) 14 Days After Application CYPSS
[11] = DIGSA: crabgrass (Digitaria sanguinalis), read-out: Visual Growth Reduction (%) 14 Days After Application DIGSA
[12] = ECHSS, read-out: Visual Growth Reduction (%) 14 Days After Application ECHSS
[13] = ORYSS (crop), read-out: Visual Growth Reduction (%) 14 Days After Application ORYSS
[14] = SETFA: giant foxtail (Setaria faberi), read-out: Visual Growth Reduction (%) 14 Days After Application SETFA
[15] = SORVU: grain sorghum (Sorghum vulgare), read-out: Visual Growth Reduction (%) 14 Days After Application SORVU
[16] = TRZSS (crop), read-out: Visual Growth Reduction (%) 14 Days After Application TRZSS
[17] = ZEAMX: maize, corn (Zea mays), read-out: Visual Growth Reduction (%) 14 Days After Application ZEAMX

Row | SMILES | pest or weed control at 70 g/ha [1, 3] | pest or weed control at 140 g/ha [1, 3] | pest or weed control at 70 g/ha [1, 4] | pest or weed control at 140 g/ha [1, 4] | pest or weed control at 70 g/ha [1, 5] | pest or weed control at 140 g/ha [1, 5] | pest or weed control at 70 g/ha [1, 6] | pest or weed control at 140 g/ha [1, 6] | pest or weed control at 70 g/ha [1, 7] | pest or weed control at 140 g/ha [1, 7] | pest or weed control at 70 g/ha [1, 8] | pest or weed control at 140 g/ha [1, 8] | pest or weed control at 70 g/ha [1, 9] | pest or weed control at 140 g/ha [1, 9] | pest or weed control at 70 g/ha [2, 10] | pest or weed control at 140 g/ha [2, 10] | pest or weed control at 70 g/ha [2, 11] | pest or weed control at 140 g/ha [2, 11] | pest or weed control at 70 g/ha [2, 12] | pest or weed control at 140 g/ha [2, 12] | also measured
1 | Cc1c(-c2cc(N)c(Cl)c(C(=O)O)n2)ccc(Cl)c1Cl [Compound 28] | 95 to 100% | 95 to 100% | 95 to 100% | 95 to 100% | 60 to 74% | 75 to 84% | 95 to 100% | 95 to 100% | 0 to 29% | 0 to 29% | 85 to 94% | 85 to 94% | 0 to 29% | 0 to 29% | 0 to 29% | 0 to 29% | 0 to 29% | 0 to 29% | 0 to 29% | 0 to 29% | pest or weed control at 70 g/ha [2, 13]: 0 to 29%; pest or weed control at 140 g/ha [2, 13]: 0 to 29%; pest or weed control at 70 g/ha [2, 14]: 0 to 29%; pest or weed control at 140 g/ha [2, 14]: 0 to 29%; pest or weed control at 70 g/ha [2, 15]: 0 to 29%; pest or weed control at 140 g/ha [2, 15]: 0 to 29%; pest or weed control at 70 g/ha [2, 16]: 0 to 29%; pest or weed control at 140 g/ha [2, 16]: 0 to 29%; pest or weed control at 70 g/ha [2, 17]: 30 to 44%; pest or weed control at 140 g/ha [2, 17]: 60 to 74%; melting point: 174 to 175 °C
2 | COc1ccc(-c2nc(C(=O)O)c(Cl)c(N)c2F)cn1 [Compound 30] | 95 to 100% | 95 to 100% | 95 to 100% | 95 to 100% | 95 to 100% | 95 to 100% | 95 to 100% | 95 to 100% | 95 to 100% | 95 to 100% | 95 to 100% | 95 to 100% | 0 to 29% | 0 to 29% | 0 to 29% | 0 to 29% | 60 to 74% | 60 to 74% | 95 to 100% | 95 to 100% | pest or weed control at 70 g/ha [2, 13]: 30 to 44%; pest or weed control at 140 g/ha [2, 13]: 45 to 59%; pest or weed control at 70 g/ha [2, 14]: 75 to 84%; pest or weed control at 140 g/ha [2, 14]: 85 to 94%; pest or weed control at 70 g/ha [2, 15]: 45 to 59%; pest or weed control at 140 g/ha [2, 15]: 85 to 94%; pest or weed control at 70 g/ha [2, 16]: 0 to 29%; pest or weed control at 140 g/ha [2, 16]: 0 to 29%; pest or weed control at 70 g/ha [2, 17]: 95 to 100%; pest or weed control at 140 g/ha [2, 17]: 95 to 100%; melting point: 166 to 167 °C
3 | COC(=O)c1nc(-c2cccnc2)c(F)c(N)c1Cl [Compound 50] | 0 to 29% | 0 to 29% | 0 to 29% | 95 to 100% | 0 to 29% | 30 to 44% | 75 to 84% | 85 to 94% | 0 to 29% | 0 to 29% | 85 to 94% | 85 to 94% | 0 to 29% | 0 to 29% | 0 to 29% | 0 to 29% | 0 to 29% | 0 to 29% | 0 to 29% | 0 to 29% | pest or weed control at 70 g/ha [2, 13]: 0 to 29%; pest or weed control at 140 g/ha [2, 13]: 0 to 29%; pest or weed control at 140 g/ha [2, 14]: 60 to 74%; pest or weed control at 70 g/ha [2, 15]: 0 to 29%; pest or weed control at 140 g/ha [2, 15]: 0 to 29%; pest or weed control at 70 g/ha [2, 16]: 0 to 29%; pest or weed control at 140 g/ha [2, 16]: 0 to 29%; pest or weed control at 70 g/ha [2, 17]: 0 to 29%; pest or weed control at 140 g/ha [2, 17]: 0 to 29%; melting point: 163 to 164 °C
4 | COC(=O)c1nc(-c2ccc(F)nc2)c(F)c(N)c1Cl [Compound 23] | 75 to 84% | 85 to 94% | 95 to 100% | 95 to 100% | 45 to 59% | 75 to 84% | 95 to 100% | 95 to 100% | 75 to 84% | 85 to 94% | 85 to 94% | 85 to 94% | 30 to 44% | 45 to 59% | 0 to 29% | 0 to 29% | 30 to 44% | 45 to 59% | 60 to 74% | 75 to 84% | pest or weed control at 70 g/ha [2, 13]: 0 to 29%; pest or weed control at 140 g/ha [2, 13]: 0 to 29%; pest or weed control at 70 g/ha [2, 15]: 0 to 29%; pest or weed control at 140 g/ha [2, 15]: 0 to 29%; pest or weed control at 70 g/ha [2, 16]: 0 to 29%; pest or weed control at 140 g/ha [2, 16]: 0 to 29%; pest or weed control at 70 g/ha [2, 17]: 0 to 29%; pest or weed control at 140 g/ha [2, 17]: 45 to 59%; melting point: 167 to 168 °C
